Experimental data from ChEMBL document CHEMBL1145498, “A systematic interaction map of validated kinase inhibitors with Ser/Thr kinases” (Proc Natl Acad Sci U S A, 2007).
Activity calls are given as the source filed them. The rule behind the calls is not given here.

Experiments:
[1] = Inhibition of Plx1
[2] = biological target: Nitric oxide synthase, inducible (Homo sapiens, UniProt P35228); assay: Inhibition of nitric oxide synthase in […]; format: cell-based
[3] = biological target: Casein kinase II subunit alpha (Homo sapiens, UniProt P68400); assay: Inhibition of CK2
CDK6/cyclin D3 = CDK6/cyclin D3 (Homo sapiens, UniProt Q00534); assay: Inhibition of Cdk6/cyclin D3; format: protein-complex assay
[4] = Inhibition of Cdk4/cyclin D
[5] = biological target: T1, Tyrosine-protein kinase Fyn (Homo sapiens, UniProt P06241); assay: Inhibition of p55fyn
[6] = biological target: Dual specificity mitogen-activated protein kinase kinase 2 (Homo sapiens, UniProt P36507)
[7] = Inhibition of Cdk9/cyclin T1
[8] = biological target: Inhibitor of nuclear factor kappa-B kinase subunit alpha (Homo sapiens, UniProt O15111); assay: Inhibition of IKK1
Rattus norvegicus = species: Rattus norvegicus; assay: Antiangiogenic activity in rat aortic ring model at 10000 nM; format: functional; settings: Aorta
[9] = biological target: RAF proto-oncogene serine/threonine-protein kinase (Homo sapiens, UniProt P04049); assay: Inhibition of Raf1
[10] = biological target: Dual specificity mitogen-activated protein kinase kinase 1 (Homo sapiens, UniProt Q02750)
RAW264.7 = assay: Inhibition of LPS induced iNOS induced expression in mouse Raw264.7cells; format: functional, cell-based
[11] = Inhibition of Cdc28p
[12] = biological target: Eukaryotic elongation factor 2 kinase (Homo sapiens, UniProt O00418); assay: Inhibition of eEF2 kinase
[13] = Antiproliferative activity against human SUM-159 cells; format: functional, cell-based; settings: SUM-159-PT
[14] = biological target: Tyrosine-protein kinase ABL1 (Homo sapiens, UniProt P00519); assay: Inhibition of Abl
[15] = biological target: Receptor tyrosine-protein kinase erbB-2 (Homo sapiens, UniProt P04626); assay: Inhibition of HER2
[16] = biological target: Tyrosine-protein kinase Lck (Homo sapiens, UniProt P06239)
MV4-11 [17] = assay: Antiproliferative activity against human MV4-11 cells; format: functional
Angiopoietin-1 receptor = Angiopoietin-1 receptor (Homo sapiens, UniProt Q02763); assay: Inhibition of Tie2
[18] = Inhibition of GTPase activity of transducer
T-cell = assay: Effect of gamma irradiation-induced apoptosis in human CD4+ T cells; format: functional, cell-based; settings: light or radiation study
[19] = biological target: Epidermal growth factor receptor (Homo sapiens, UniProt P00533, L858R); assay: Inhibition of EGFR L858R mutant; format: protein assay
[20] = biological target: Receptor tyrosine-protein kinase erbB-4 (Homo sapiens, UniProt Q15303); assay: Inhibition of erbB4/Her4
[21] = biological target: Epidermal growth factor receptor (Homo sapiens, UniProt P00533, L861Q); assay: Inhibition of EGFR L861Q mutant; format: protein assay
[22] = Inhibition of Cdk6/cyclin D1
Mus musculus = species: Mus musculus; assay: Inhibition of LPS-stimulated TNFalpha release in mouse; format: functional
[23] = biological target: Dual specificity tyrosine-phosphorylation-regulated kinase 1A (Homo sapiens, UniProt Q13627); assay: Inhibition of DYRK1a
[24] = biological target: Rho-associated protein kinase 2 (Homo sapiens, UniProt O75116); assay: Inhibition of ROCK2
[25] = Inhibition of mouse CaM kinase 2
[26] = Inhibition of phosphorylase kinase
[27] = biological target: DNA topoisomerase 2-alpha (Homo sapiens, UniProt P11388); assay: Inhibition of topoisomerase 2
[28] = Inhibition of TNFalpha release in human peripheral blood mononuclear cells; format: functional
Blood = assay: Inhibition of TNFalpha release in human whole blood; format: functional, tissue-based
[29] = biological target: Aryl hydrocarbon receptor (Homo sapiens, UniProt P35869); assay: Agonist activity at human aryl hydrocarbon receptor; format: functional
[30] = Agonist activity at yeast aryl hydrocarbon receptor; format: functional, Saccharomyces cerevisiae
MCF7 = assay: Cytotoxicity against human MCF7 cells; format: functional, cell-based
[31] = biological target: T2, Platelet-derived growth factor receptor beta (Homo sapiens, UniProt P09619)
[32] = biological target: Vascular endothelial growth factor receptor 2 (Homo sapiens, UniProt P35968)
[33] = biological target: Protein kinase C zeta type (Homo sapiens, UniProt Q05513); assay: Inhibition of PKCzeta
[34] = biological target: Dual specificity protein kinase CLK4 (Mus musculus, UniProt O35493); assay: Inhibition of mouse Clk4
Aurora kinase A = Aurora kinase A (Homo sapiens, UniProt O14965); assay: Inhibition of Aurora kinase A
[35] = Inhibition of Aurora kinase B
[36] = biological target: Tyrosine-protein kinase SYK (Homo sapiens, UniProt P43405)
RBL-2H3 = assay: Inhibition of FcepsilonRI-mediated 5-HT release in rat RBL2H3 cells; format: functional, cell-based
[37] = biological target: Tyrosine-protein kinase BTK (Homo sapiens, UniProt Q06187); assay: Inhibition of Btk
[38] = biological target: Serine/threonine-protein kinase pim-2 (Homo sapiens, UniProt Q9P1W9); assay: Inhibition of PIM2 expressed in Escherichia coli by thermal shift assay
MV4-11 [39] = assay: Induction of apoptosis in human MV4-11 cells; format: functional, cell-based
[40] = biological target: Epidermal growth factor receptor (Homo sapiens, UniProt P00533); assay: Inhibition of EGF
[41] = biological target: T2, Platelet-derived growth factor receptor beta; assay: Inhibition of bPDGFR in human PAC1 cells; format: cell-based
[42] = biological target: Fibroblast growth factor receptor 1 (Homo sapiens, UniProt P11362); assay: Inhibition of FGFR1
[43] = Inhibition of P60cSrc
[44] = biological target: Tyrosine-protein kinase Yes (Homo sapiens, UniProt P07947); assay: Inhibition of Yes kinase
[45] = biological target: T1, Tyrosine-protein kinase Fyn; assay: Inhibition of Fyn
[46] = biological target: Proto-oncogene tyrosine-protein kinase Src (Homo sapiens, UniProt P12931); assay: Inhibition of c-Src
[47] = Inhibition of PDGF receptor kinase
[48] = biological target: Tyrosine-protein kinase Lyn (Homo sapiens, UniProt P07948); assay: Inhibition of Lyn kinase
[49] = biological target: Cyclin-dependent kinase 7 (Homo sapiens, UniProt P50613); assay: Inhibition of Cdk7
[50] = Induction of differentiation in mouse D3 cells at 400 nM; format: functional
[51] = biological target: Mitogen-activated protein kinase 14 (Homo sapiens, UniProt Q16539); assay: Inhibition of SAPK2a/p38-alpha
cells = settings: Homo sapiens, Granta-519, 72 h

T1 sequence (P06241 whole entry): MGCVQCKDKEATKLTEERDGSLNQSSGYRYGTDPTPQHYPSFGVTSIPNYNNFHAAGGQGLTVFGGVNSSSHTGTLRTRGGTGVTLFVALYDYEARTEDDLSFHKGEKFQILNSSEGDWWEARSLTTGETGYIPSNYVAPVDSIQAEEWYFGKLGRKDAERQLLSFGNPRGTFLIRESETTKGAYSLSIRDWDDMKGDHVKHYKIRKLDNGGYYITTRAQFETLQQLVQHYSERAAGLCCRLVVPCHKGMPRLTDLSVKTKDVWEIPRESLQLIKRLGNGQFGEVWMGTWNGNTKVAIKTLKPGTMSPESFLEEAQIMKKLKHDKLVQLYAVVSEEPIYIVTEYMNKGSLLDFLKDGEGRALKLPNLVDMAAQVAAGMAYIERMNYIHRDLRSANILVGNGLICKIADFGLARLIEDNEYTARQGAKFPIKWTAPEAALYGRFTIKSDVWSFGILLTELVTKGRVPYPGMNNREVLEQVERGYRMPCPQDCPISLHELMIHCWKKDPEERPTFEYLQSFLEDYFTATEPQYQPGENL
T2 sequence (P09619 whole entry): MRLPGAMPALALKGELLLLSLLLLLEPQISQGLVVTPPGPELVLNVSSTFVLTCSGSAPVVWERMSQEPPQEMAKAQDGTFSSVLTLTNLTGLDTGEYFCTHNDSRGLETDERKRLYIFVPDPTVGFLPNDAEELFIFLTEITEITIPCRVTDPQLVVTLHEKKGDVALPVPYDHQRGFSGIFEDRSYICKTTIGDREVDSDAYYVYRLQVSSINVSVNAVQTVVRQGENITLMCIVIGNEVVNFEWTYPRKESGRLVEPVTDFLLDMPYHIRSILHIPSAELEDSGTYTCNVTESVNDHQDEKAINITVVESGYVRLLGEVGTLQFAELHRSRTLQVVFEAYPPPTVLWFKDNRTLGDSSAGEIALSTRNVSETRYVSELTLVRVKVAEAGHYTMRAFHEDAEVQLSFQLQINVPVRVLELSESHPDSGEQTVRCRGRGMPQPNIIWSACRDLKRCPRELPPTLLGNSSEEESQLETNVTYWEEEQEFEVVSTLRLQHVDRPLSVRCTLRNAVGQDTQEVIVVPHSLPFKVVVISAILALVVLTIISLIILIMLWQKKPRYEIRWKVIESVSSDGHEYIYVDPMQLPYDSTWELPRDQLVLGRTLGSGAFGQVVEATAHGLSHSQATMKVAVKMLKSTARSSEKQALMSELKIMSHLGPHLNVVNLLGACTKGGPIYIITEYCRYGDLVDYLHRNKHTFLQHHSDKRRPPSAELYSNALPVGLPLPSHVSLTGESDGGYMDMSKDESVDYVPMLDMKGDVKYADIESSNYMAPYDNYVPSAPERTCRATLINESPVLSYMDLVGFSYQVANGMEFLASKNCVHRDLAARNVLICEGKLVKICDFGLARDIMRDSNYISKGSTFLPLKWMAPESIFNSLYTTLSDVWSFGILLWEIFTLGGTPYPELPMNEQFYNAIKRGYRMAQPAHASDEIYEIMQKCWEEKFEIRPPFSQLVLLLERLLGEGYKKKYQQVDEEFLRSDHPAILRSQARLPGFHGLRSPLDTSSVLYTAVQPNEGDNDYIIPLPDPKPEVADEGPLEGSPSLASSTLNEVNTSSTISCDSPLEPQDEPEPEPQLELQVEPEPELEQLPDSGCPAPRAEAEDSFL
Chain of Fibroblast growth factor receptor 1 (P11362 whole entry): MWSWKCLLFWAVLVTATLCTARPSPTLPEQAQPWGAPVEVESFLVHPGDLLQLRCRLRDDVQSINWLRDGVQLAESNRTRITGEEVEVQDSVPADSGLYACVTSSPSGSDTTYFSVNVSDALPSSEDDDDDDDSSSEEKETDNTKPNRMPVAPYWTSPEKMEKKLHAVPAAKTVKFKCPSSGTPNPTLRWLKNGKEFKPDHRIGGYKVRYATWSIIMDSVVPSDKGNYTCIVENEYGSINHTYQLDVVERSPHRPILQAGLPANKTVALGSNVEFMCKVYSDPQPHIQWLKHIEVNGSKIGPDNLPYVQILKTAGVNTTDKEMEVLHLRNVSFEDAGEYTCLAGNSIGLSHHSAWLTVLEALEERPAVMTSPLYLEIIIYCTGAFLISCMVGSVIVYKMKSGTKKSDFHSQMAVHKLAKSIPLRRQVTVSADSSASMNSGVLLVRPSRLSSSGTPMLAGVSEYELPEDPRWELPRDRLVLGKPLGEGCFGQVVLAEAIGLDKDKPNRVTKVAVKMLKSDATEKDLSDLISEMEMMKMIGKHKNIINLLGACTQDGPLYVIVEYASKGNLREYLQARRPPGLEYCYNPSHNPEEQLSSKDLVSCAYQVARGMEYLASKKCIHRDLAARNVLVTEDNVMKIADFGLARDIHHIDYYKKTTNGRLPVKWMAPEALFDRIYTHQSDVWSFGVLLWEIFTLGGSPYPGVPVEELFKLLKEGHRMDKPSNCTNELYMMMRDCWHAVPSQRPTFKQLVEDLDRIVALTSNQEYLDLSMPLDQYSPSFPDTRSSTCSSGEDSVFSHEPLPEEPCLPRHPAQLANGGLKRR
Chain of Epidermal growth factor receptor (Homo sapiens, UniProt P00533, L858R) (P00533 25-1210 L858R limits assumed): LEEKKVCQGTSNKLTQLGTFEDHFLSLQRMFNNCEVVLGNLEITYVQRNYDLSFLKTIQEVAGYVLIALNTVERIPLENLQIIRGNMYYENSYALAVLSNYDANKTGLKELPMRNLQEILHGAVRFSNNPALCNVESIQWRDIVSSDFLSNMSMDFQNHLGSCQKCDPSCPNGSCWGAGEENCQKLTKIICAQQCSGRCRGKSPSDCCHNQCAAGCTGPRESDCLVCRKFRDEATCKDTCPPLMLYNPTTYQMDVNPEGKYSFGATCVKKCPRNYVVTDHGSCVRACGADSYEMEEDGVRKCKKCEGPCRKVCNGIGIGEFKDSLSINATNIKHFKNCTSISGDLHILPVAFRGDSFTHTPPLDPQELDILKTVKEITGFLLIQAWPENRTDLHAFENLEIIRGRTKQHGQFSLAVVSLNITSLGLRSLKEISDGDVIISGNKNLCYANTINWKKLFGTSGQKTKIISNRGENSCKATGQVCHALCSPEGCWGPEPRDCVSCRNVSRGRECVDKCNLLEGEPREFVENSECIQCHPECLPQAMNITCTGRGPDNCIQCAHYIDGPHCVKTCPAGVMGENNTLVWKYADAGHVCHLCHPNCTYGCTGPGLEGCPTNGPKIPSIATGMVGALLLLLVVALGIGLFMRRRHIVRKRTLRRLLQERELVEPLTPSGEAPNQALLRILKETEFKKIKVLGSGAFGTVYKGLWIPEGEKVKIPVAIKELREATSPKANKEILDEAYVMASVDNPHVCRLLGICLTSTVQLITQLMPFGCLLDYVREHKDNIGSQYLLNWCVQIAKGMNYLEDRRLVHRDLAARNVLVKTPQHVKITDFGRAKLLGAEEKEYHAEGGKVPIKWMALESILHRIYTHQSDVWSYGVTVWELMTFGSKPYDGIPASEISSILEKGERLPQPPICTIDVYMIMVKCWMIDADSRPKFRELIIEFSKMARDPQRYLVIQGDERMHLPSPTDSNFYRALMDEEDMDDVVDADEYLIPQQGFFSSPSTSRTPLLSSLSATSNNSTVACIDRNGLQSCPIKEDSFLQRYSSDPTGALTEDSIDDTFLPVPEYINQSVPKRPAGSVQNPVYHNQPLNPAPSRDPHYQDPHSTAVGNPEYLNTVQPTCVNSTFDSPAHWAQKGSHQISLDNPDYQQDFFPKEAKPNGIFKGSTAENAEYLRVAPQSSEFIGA
Chain of Tyrosine-protein kinase Lyn (P07948 whole entry): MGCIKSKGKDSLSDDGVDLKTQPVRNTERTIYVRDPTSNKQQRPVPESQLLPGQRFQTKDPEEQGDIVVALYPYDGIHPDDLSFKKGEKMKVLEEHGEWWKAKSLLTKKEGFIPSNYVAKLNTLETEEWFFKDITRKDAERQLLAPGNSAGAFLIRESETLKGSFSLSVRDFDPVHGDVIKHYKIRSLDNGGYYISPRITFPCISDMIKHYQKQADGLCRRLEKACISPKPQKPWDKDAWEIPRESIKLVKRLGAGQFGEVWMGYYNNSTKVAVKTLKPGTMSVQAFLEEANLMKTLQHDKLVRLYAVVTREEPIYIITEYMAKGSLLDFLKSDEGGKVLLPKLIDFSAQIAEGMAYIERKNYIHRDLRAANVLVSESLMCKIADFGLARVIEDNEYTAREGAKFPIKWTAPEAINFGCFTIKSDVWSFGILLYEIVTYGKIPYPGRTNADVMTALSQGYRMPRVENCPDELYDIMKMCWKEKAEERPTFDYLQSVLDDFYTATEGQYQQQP
Chain of Protein kinase C zeta type (Q05513 whole entry): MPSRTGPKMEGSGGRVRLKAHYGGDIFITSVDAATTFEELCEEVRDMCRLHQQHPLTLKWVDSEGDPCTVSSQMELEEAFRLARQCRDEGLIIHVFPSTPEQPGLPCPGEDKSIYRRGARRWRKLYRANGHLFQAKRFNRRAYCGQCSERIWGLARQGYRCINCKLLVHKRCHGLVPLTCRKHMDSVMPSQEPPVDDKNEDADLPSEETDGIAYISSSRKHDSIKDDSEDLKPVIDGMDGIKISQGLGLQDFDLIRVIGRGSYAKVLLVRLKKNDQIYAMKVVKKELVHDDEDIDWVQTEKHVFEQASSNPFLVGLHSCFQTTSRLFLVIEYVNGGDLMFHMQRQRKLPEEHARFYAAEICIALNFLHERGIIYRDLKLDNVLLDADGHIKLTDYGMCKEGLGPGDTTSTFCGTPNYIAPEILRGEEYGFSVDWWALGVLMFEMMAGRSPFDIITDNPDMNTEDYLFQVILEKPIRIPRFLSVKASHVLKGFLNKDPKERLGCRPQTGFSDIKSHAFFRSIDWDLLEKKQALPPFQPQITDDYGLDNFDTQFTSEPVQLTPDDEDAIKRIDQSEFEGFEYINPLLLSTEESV
Chain of Serine/threonine-protein kinase pim-2 (Q9P1W9 whole entry): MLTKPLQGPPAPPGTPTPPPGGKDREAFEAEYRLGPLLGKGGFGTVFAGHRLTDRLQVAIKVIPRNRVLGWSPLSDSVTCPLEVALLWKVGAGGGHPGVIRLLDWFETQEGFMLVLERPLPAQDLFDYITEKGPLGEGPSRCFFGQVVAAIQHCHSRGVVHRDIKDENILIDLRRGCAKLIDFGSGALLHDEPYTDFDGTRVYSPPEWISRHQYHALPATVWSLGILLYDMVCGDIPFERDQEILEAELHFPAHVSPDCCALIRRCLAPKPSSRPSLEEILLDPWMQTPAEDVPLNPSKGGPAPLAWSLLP

Structure (SMILES): C/C(O)=C(\C#N)C(=O)Nc1cc(Br)ccc1Br
- IC50 [1]: 10 µM

Structure (SMILES): COc1cc(/C=C/C(=O)CC(=O)/C=C/c2ccc(O)c(OC)c2)ccc1O [CURCUMIN]
- IC50 [2]: 6 µM

Structure (SMILES): CCCCc1c(-c2ccc(O)cc2)[nH]c2nccnc12 [ALOISINE A]
- IC50 [3]: ≥ 100 µM

Structure (SMILES): Cn1cnc2c(NCc3ccccc3)nc(NCCO)nc21 [OLOMOUCINE]
- IC50 (CDK6/cyclin D3): > 250 µM
- IC50 [4]: > 1 mM

Structure (SMILES): COc1cc(OC)c(/C=C2\C(=O)Nc3ccccc32)c(OC)c1
- IC50 [5]: > 100 µM

Structure (SMILES): N#C/C(=C(/N)Sc1ccc(N)cc1)c1ccccc1C(F)(F)F
- IC50 [6]: 220 nM

Structure (SMILES): Cc1nc(N)sc1-c1ccnc(Nc2cccc([N+](=O)[O-])c2)n1
- Ki [7]: 4 nM

Structure (SMILES): COc1cc(O)c2c(c1)oc(=O)c1c3cc(O)c(O)cc3oc21 [WEDELOLACTONE]
- IC50 [8]: > 10 µM

Structure (SMILES): O=C1Nc2ccccc2/C1=C/c1cnc[nH]1
- inhibition at 10 µM (Rattus norvegicus): 30%

Structure (SMILES): O=C1C(Cl)=C(N2C(=O)CCC2=O)C(=O)c2ccccc21
- IC50 [9]: 34.5 µM
- IC50 [10]: 380 nM

Structure (SMILES): COc1cc(C[C@H]2C(=O)OC[C@@H]2Cc2ccc(OC)c(OC)c2)ccc1O [ARCTIGENIN]
- IC50 (RAW264.7): 10 nM

Structure (SMILES): CC(C)n1cnc2/c(=N/c3cccc(Cl)c3)nc(NCCO)[nH]c21
- IC50 [11]: 7 µM

Structure (SMILES): Cc1cc(C=C2C(=O)C=CC2=O)cc(C)c1O
- IC50 [12]: 440 nM

Structure (SMILES): CCOc1ccc(/C=C2/SC(=O)N(CCN)C2=O)cc1 [HIAZOLIDINEDIONE1]
- IC50 [13]: ≤ 25 µM

Structure (SMILES): CCOC(=O)c1cnc2oc3ccc(O)cc3c2c1-c1ccccc1
- Activity: Active

Structure (SMILES): c1ccc(-c2n[nH]c3c2oc2ccccc23)cc1
- IC50 [14]: ≥ 10 µM
- IC50 [15]: ≥ 10 µM

Structure (SMILES): O=C(Nc1cccc(Nc2nccc(Nc3cccc(C(F)(F)F)c3)n2)c1)C1CC1 [ANILINOPYRIMIDINE1]
- IC50 [16]: 131 nM

Structure (SMILES): COc1ccc(Cl)cc1NC(=O)Nc1cc(C)nc2ccccc12
- Activity (MV4-11 [17]): 15 µM

Structure (SMILES): CN1CCc2[nH]c(=S)c(C#N)c(-c3cccs3)c2C1
- IC50 (Angiopoietin-1 receptor): > 10 µM

Structure (SMILES): N#CC(C#N)=Cc1ccc(O)c(O)c1 [TYRPHOSTIN 23]
- IC50 [18]: 10 µM

Structure (SMILES): NC(=O)c1ccc2[nH]c(-c3ccc(Oc4ccc(Cl)cc4)cc3)nc2c1
- EC50 (T-cell): 3000 nM

Structure (SMILES): O=C(Nc1cccc(Nc2cc(Nc3cccc(C(F)(F)F)c3)ncn2)c1)C1CC1
- IC50 [19]: 63 nM
- IC50 [20]: 7.64 µM
- IC50 [21]: 4 nM

Structure (SMILES): O=C1c2ccccc2-[n+]2ccc3c([nH]c4ccccc43)c21 [FASCAPLYSIN CHLORIDE]
- IC50 [22]: 3.4 µM

Structure (SMILES): CSc1nc(-c2ccc(F)cc2)c(-c2ccnc(NC(C)c3ccccc3)c2)[nH]1 (racemic)
- ED50 (Mus musculus): 1.33 mg/kg

Structure (SMILES): NS(=O)(=O)c1ccc(Nc2nc(OCC3CCCCC3)c3nc[nH]c3n2)cc1
- IC50 [23]: 900 nM
- IC50 [24]: 600 nM

Structure (SMILES): COc1ccc(S(=O)(=O)N(CCO)c2ccccc2CN(C)C/C=C/c2ccc(Cl)cc2)cc1
- IC50 [25]: 370 nM

Structure (SMILES): Cl.Cn1cc(C2=C(c3ccc4cc5n(c4c3)CCC(CN)C5)C(=O)NC2=O)c2ccccc21 (stereo not drawn)
- IC50 [26]: 1300 nM

Structure (SMILES): Cc1c2ccncc2c(C)c2c1[nH]c1ccccc12 [ELLIPTECINE]
- IC50 [27]: 3.3 µM

Structure (SMILES): C[S+]([O-])c1ccc(CSc2nc(-c3ccc(F)cc3)c(-c3ccncc3)[nH]2)cc1 (stereo not drawn)
- IC50 [28]: 3.65 µM
- IC50 (Blood): 3.65 µM

Structure (SMILES): CC(=O)O/N=C1/C(=C2/C(=O)Nc3cc(Br)ccc32)Nc2ccccc21 [6-BROMOINDIRUBIN-3'-ACETOXIME]
- EC50 [29]: 160 nM
- EC50 [30]: ≥ 100 nM

Structure (SMILES): NC1=N/C(=C2/CCNC(=O)c3[nH]ccc32)C(=O)N1 [DEBROMOHYMENIALDISINE]
- IC50 (MCF7): 25 µM

Structure (SMILES): N#CCCc1ccc2c(c1)-c1[nH]c3ccc([N+](=O)[O-])cc3c1CC(=O)N2 [ALSTERPAULLONE 2]
- IC50 [31]: 316 nM
- IC50 [32]: 1000 nM

Structure (SMILES): CN(C)CCCn1cc(C2=C(c3c[nH]c4ccccc34)C(=O)NC2=O)c2ccccc21 [GF-109203]
- IC50 [33]: 5.8 µM

Structure (SMILES): CCN1/C(=C/C(C)=O)Sc2ccc(OC)cc21
- IC50 [34]: 15 nM

Structure (SMILES): COc1cc2ncnc(Nc3ccc(NC(=O)c4ccccc4)cc3)c2cc1OC [ANILINOQUINAZOLINE1]
- IC50 (Aurora kinase A): 310 nM
- IC50 [35]: 240 nM

Structure (SMILES): NCCNc1ncc(C(N)=O)c(Nc2cccc(C(F)(F)F)c2)n1
- IC50 [36]: 41 nM
- IC50 (RBL-2H3): 460 nM
- IC50 [37]: 15.5 µM

Structure (SMILES): CN(C)C[C@@H]1CCn2cc(c3ccccc32)C2=C(C(=O)NC2=O)c2cn(c3ccccc23)CCO1 [RUBOXISTAURIN]
- IC50 [38]: > 20 µM
- IC50 (MV4-11 [39]): 1500 nM

Structure (SMILES): CCOC(=O)c1c(C)[nH]c(/C=C2\C(=O)Nc3ccccc32)c1C
- IC50 [40]: > 100 µM
- IC50 [41]: 4 µM
- IC50 [42]: 5 µM

Structure (SMILES): O=C(O)c1cc(N(Cc2ccccc2O)Cc2cc(O)ccc2O)ccc1O [LAVENDUSTIN A]
- IC50 [43]: 500 nM

Structure (SMILES): CN(C)S(=O)(=O)c1ccc2c(c1)/C(=C/c1cc3c([nH]1)CCCC3)C(=O)N2
- IC50 [44]: 20 nM
- IC50 [45]: 170 nM
- IC50 [46]: 688 µM
- IC50 [47]: > 10 µM
- IC50 [48]: 130 nM

Structure (SMILES): COc1cc2c(cc1OC)-c1n[nH]c(Nc3cccc(F)c3)c1C2
- IC50 [49]: > 10 µM

Structure (SMILES): Nc1cccc(-c2cc3c(Oc4cccc(O)c4)ncnc3[nH]2)c1
- Activity [50]: 50%

Structure (SMILES): Cc1ccc(NC(=O)c2cccc(N(C)C)c2)cc1NC(=O)c1ccc(O)cc1
- IC50 [51]: 2000 nM

Structure (SMILES): CC[C@H](CO)Nc1nc(NCc2ccccc2)c2ncn(C(C)C)c2n1 [SELICICLIB]
- IC50 (cells): 25 µM
